In patent EP0819121B1, “TRICYCLIC COMPOUNDS USEFUL FOR INHIBITION OF G-PROTEIN FUNCTION AND FOR TREATMENT OF PROLIFERATIVE DISEASES” (SCHERING CORPORATION, priority 1995, dated 1996):
Read-outs that look alike come from different tables or passages of the source.

What was measured:
[1] = target: farnesyl protein transferase (Homo sapiens, UniProt P49354+P49356); assay: FPT inhibition, in vitro enzyme assay (SPA, transfer of [3H]farnesyl to biotinylated Ras-peptide; or methods of WO 95/10516); format: biochemical; conditions: values given as ranges
Method: (§1) In some assays, FPT IC50 (inhibition of farnesyl protein transferase, in vitro enzyme assay) is determined by the methods described in WO 95/10516. COS Cell IC50 (Cell-Based Assay) and Cell Mat assay are determined by the methods described in WO 95/10516. GGPT IC50 (geranylgeranyl protein transferase, in vitro enzyme assay) and in vitro tumor activity can be determined by the methods disclosed in WO 95/10516.
In some assays, the inhibition of famesyi protein transferase was assayed by measuring the transfer of [^3H]farnesyl from [^3H]famesylpyrophosphate to biotinylated Ras-peptide (biotin-KKSKTKCVIM) using the conditions described below for each 96-well plate to be tested.
An assay buffer is prepared consisting of 40 mM Hepes, pH 7.5; 5 mM dithiothreitol; 20 mM magnesium chloride and 0.01 (v/v)% Igepal nonionic detergent.
A SPA (scintillation proximity assay) bead suspension is prepared consisting of 50 mg of Streptavidin SPA beads (Amersham Life-Science) suspended in 2.5 mL of PBS (phosphate buffered saline). Immediately prior to running the assay a stop solution is prepared consisting of 480 µL of the SPA bead suspension mixed with 6720 µL of a solution consisting of 250 mM EDTA (pH 8.0) and 0.5% Bovine Serium Albumin (Fraction V, 96-99% albumin).
(§2) In some assays, to determine FPT IC50, an assay mixture is prepared consisting of 480 µL of assay buffer and 3052.8 µL of water. This mixture is vortexed to homogeneity and 48 µL of the Ras peptide is added. The mixture is vortexed and 15.36 µL of FPP and 3.84 µL of [^3H]FPP are added and the mixture vortexed again. 37.5 µL of this assay mixture and 2.5µL of a DMSO solution (at test concentration) of the compound being tested are then added to each well of a Costar polypropylene U-bottom microtiter plate. The plate is sonicated for 15 minutes at 37°C and then shaken for 15 minutes on a plate shaker. 10 µL of the enzyme (recombinant Human farnesyl protein transferase) is added to each well using a Beckman Biomek 2000. The plate is incubated at room temperature for 20 minutes and then quenched with 75 µL of the stop solution. 100 µL of the quenched reaction mixture from each well is then transferred to a Wallac crosstalk-free microtiter plate using a Beckman Biomek 2000. Radioactivity is measured in a Wallac 1450 Microbeta plus liquid scintillation counter. Percent inhibition is calculated relative to an uninhibited control.
as §2, with “farnesyl transferase inhibition,” for “FPT IC50,”, “buffer,” for “buffer and”, “water and 240 µL of DMSO.” for “water.”, “40” for “37.5”, “is” for “and 2.5µL of a DMSO solution (at test concentration) of the compound being tested are”, “plate, each well of which contains a dry sample of the compound being tested.” for “plate.”

COS Cells = assay: COS cell assay, inhibition of RAS processing (cell-based, methods of WO 95/10516)
Method: as §1

Normal Cells = assay: Cell Mat assay, cell growth inhibition, normal cells (methods of WO 95/10516); format: cell-based
Method: as §1

Tumor Cells = assay: Cell Mat assay, cell growth inhibition, tumor cells (methods of WO 95/10516); format: cell-based
Method: as §1

[2] = read-out: Activity in COS Cells Inhibition of RAS Processing IC50 in µM
[3] = read-out: Activity in COS Cells Inhibition of RAS Processing IC50
[4] = read-out: Cell Growth Inhibition MAT Assay Normal Cells IC50
[5] = read-out: Cell Growth Inhibition MAT Assay Tumor Cells IC50

Compound | FPT Inhibition IC50 [1] [µM] | also measured
N[C@@H](CS)CN1CCN(C2c3ccc(Cl)cc3CCc3cc(Br)cnc32)CC1 (some centres unmarked) [EX1] |  | IC50 [1]: > 100 µM
CCCC[C@H]1CN(C2c3ccc(Cl)cc3CCc3cc(Br)cnc32)CCN1C(=O)Cc1cc[n+]([O-])cc1 (some centres unmarked) [EX 36] | 0.01 to 10 | IC50 (COS Cells; [2]): 0.01 to 10 µM; IC50 (Normal Cells; read-out: Cell Growth Inhibition MAT Assay Normal Cells IC50 in µM): > 25 µM; IC50 (Tumor Cells; read-out: Cell Growth Inhibition MAT Assay Tumor Cells IC50 in µM): 1.6 µM
CNC(=O)C1CN(C2c3ccc(Cl)cc3CCc3cc(Br)cnc32)CCN1C(=O)Cc1ccncc1 (centres unmarked) [EX 55] | 0.01 to 10 | 
CCCC[C@H]1CN(C2c3ccc(Cl)cc3CCc3cc(Br)cnc32)CCN1C(=O)CC1CCN(C(N)=O)CC1 (some centres unmarked) [EX 37, Step C] | 0.01 to 10 | IC50 (COS Cells; [3]): 0.01 to 10 µM; IC50 (Normal Cells; [4]): 18 µM; IC50 (Tumor Cells; [5]): 3.1 µM
CC(C)N(C)C(=O)C1CN(C2c3ccc(Cl)cc3CCc3cc(Br)cnc32)CCN1C(=O)Cc1ccncc1 (centres unmarked) [EX 56] | 0.01 to 10 | 
N[C@@H](CS)C(=O)N1CCN(C2c3ccc(Cl)cc3CCc3cc(Br)cnc32)CC1 (some centres unmarked) [EX 21, Step B] | 0.01 to 10 | 
CC(C)NC(=O)CC1CN(C2c3ccc(Cl)cc3CCc3cc(Br)cnc32)CCN1C(=O)Cc1cccnc1 (centres unmarked) [EX 34] | 0.01 to 10 | 
O=C(CC1CN(C2c3ccc(Cl)cc3CCc3cc(Br)cnc32)CCN1C(=O)Cc1ccncc1)NC1CC1 (centres unmarked) [EX 54] | 0.01 to 10 | 
CC(C)NC(=O)C1CN(C2c3ccc(Cl)cc3CCc3cc(Br)cnc32)CCN1C(=O)Cc1ccncc1 (centres unmarked) [EX 32-C] | 0.01 to 10 | 
O=C(NCc1cccnc1)C1CN(C2c3ccc(Cl)cc3CCc3cc(Br)cnc32)CCN1C(=O)CCc1ccccc1 (centres unmarked) [EX 43] | 0.01 to 10 | 
CNC(=O)C1CN(C2c3ccc(Cl)cc3CCc3cc(Br)cnc32)CCN1C(=O)Cc1cccnc1 (centres unmarked) [EX 32-A] | 0.01 to 10 | 
COc1ccc(CSC[C@H](N)C(=O)N2CCC(=C3c4ccc(Cl)cc4CCc4cccnc43)CC2)cc1 [EX 31] | 0.01 to 10 | IC50 (Normal Cells; [4]): 18 µM; IC50 (Tumor Cells; [5]): 12.5 µM
CCCCNC(=O)C1CN(C2c3ccc(Cl)cc3CCc3cc(Br)cnc32)CCN1C(=O)CC1CCN(C(N)=O)CC1 (centres unmarked) [EX 41] | 0.01 to 10 | 
CNC(=O)CC1CN(C2c3ccc(Cl)cc3CCc3cc(Br)cnc32)CCN1C(=O)Cc1cccnc1 (centres unmarked) [EX 46] | 0.01 to 10 | 
COc1ccc(CSC[C@H](NC(=O)OC(C)(C)C)C(=O)N2CCC(=C3c4ccc(Cl)cc4CCc4cccnc43)CC2)cc1 [EX 30] | 0.01 to 10 | IC50 (Normal Cells; [4]): > 50 µM; IC50 (Tumor Cells; [5]): > 50 µM
CNC(=O)CC1CN(C2c3ccc(Cl)cc3CCc3cc(Br)cnc32)CCN1C(=O)Cc1ccncc1 (centres unmarked) [EX 51] | 0.01 to 10 | 
CN(Cc1ccccc1[N+](=O)[O-])C(=O)C1CN(C2c3ccc(Cl)cc3CCc3cc(Br)cnc32)CCN1C(=O)Cc1cccnc1 (centres unmarked) [EX 48] |  | IC50 [1]: 10 to 100 µM
COCC[C@H]1CN(C2c3ccc(Cl)cc3CCc3cc(Br)cnc32)CCN1C(=O)CC1CCN(C(N)=O)CC1 (some centres unmarked) [EX 39, Step C] | 0.01 to 10 | IC50 (COS Cells; [3]): 0.01 to 10 µM; IC50 (Normal Cells; [4]): > 25 µM; IC50 (Tumor Cells; [5]): < 1.6 µM
N[C@@H](CSSC[C@H](N)C(=O)N1CCN(C2c3ccc(Cl)cc3CCc3cc(Br)cnc32)CC1)C(=O)N1CCN(C2c3ccc(Cl)cc3CCc3cc(Br)cnc32)CC1 (some centres unmarked) [EX 20, Step B] | 0.01 to 10 | 
O=C(NC1CC1)C1CN(C2c3ccc(Cl)cc3CCc3cc(Br)cnc32)CCN1C(=O)Cc1ccncc1 (centres unmarked) [EX 47] | 0.01 to 10 | 
COCC[C@H]1CN(C2c3ccc(Cl)cc3CCc3cc(Br)cnc32)CCN1C(=O)Cc1cc[n+]([O-])cc1 (some centres unmarked) [Ex 38] | 0.01 to 10 | IC50 (COS Cells; [2]): 0.01 to 10 µM
CC(C)NC(=O)C1CN(C2c3ccc(Cl)cc3CCc3cc(Br)cnc32)CCN1C(=O)Cc1cccnc1 (centres unmarked) [EX 32-B] | 0.01 to 10 | 
COCC[C@H]1CN(C2c3ccc(Cl)cc3CCc3cc(Br)cnc32)CCN1C(=O)CC1CCNCC1 (some centres unmarked) [EX 39, Step B] | 0.01 to 10 | 
CCCCNC(=O)C1CN(C2c3ccc(Cl)cc3CCc3cc(Br)cnc32)CCN1C(=O)OC1CCN(C(C)=O)CC1 (centres unmarked) [EX 44] | 0.01 to 10 | 
CCOC(=O)C1CN(C2c3ccc(Cl)cc3CCc3cc(Br)cnc32)CCN1C(=O)Cc1cccnc1 (centres unmarked) [EX 33] | 0.01 to 10 | 
O=C(Cc1ccncc1)N1CCN(C2c3ccc(Cl)cc3CCc3cc(Br)cnc32)CC1CO (centres unmarked) [EX 50] | 0.01 to 10 | 
N[C@@H](CS)CN1CCC(=C2c3ccc(Cl)cc3CCc3cc(Br)cnc32)CC1 [EX 56A] |  | IC50 [1]: > 100 µM
